Measured values published in patent publication US11771712B2, “Carborane compounds and methods of use thereof” (OHIO STATE INNOVATION FOUNDATION, priority 2015, dated 2023).
Read-outs that look alike come from different tables or passages of the source.

How the values were obtained:
[1] = molecular target: T1, Human full-length ERβ (Homo sapiens, UniProt Q92731); experiment: ERβ cell-based luciferase reporter assay, agonist mode, transiently transfected HEK293 cells
T1 construct: expression vector encoding human full-length ERα or ERβ; expressed in transfected cells; host or cells: HEK293, transiently transfected
T1 sequence (Q92731 whole entry): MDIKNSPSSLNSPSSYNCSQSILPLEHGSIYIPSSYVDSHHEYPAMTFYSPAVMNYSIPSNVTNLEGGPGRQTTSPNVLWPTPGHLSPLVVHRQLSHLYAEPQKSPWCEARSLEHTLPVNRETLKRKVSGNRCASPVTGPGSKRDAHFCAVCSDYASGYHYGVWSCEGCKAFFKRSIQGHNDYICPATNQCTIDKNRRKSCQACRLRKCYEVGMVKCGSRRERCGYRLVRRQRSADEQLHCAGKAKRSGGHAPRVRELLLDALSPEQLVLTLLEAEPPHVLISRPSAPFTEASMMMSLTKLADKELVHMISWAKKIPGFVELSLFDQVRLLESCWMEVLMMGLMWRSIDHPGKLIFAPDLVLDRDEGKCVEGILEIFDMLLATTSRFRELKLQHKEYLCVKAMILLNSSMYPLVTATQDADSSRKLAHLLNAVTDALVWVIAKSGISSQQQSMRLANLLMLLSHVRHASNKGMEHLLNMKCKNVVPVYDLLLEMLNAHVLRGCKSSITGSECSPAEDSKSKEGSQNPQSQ
Protocol: (§1) The selectivity and potency of the various compounds was carried out via in vitro testing in ERα and ERβ cell-based reporter assays. The activity of the selected compounds was determined in the cell-based reporter assays in HEK293 cells.
(§2) The HEK293 cells were propagated in a monolayer in phenol red-free DMEM supplemented with 10% fetal bovine serum, 2 mM Glutamax and penicillin/streptomycin (Thermo Fisher Scientific, MA, USA) and incubated in a 5% CO2 humidified atmosphere at 37° C. Right before transfection, the growth medium was changed to phenol red-free DMEM supplemented with 4% HyClone Fetal Bovine Serum, Charcoal/Dextran Treated (GE Healthcare Life Sciences, USA) and 2 mM Glutamax (starvation medium). The cells were transfected with the expression vector encoding human full-length ERα or ERβ and with the reporter vector containing 3 repeats of estrogen responsive elements (ERE) followed by the minimal thymidine kinase promoter from the herpes simplex virus in the pGL4 vector (Promega, USA). Luciferase served as a reporter gene. The transfection was carried out in 10 cm dishes (Nunc) in the starvation medium. After 24 hours, the cells were trypsinized, counted and seeded to cell culture treated, white, solid 1536-well plates (Corning Inc., NY, USA) at 1500 cells/well in 4 μl of total media volume. The compounds to be tested were diluted in DMSO and transferred to the cells using an acoustic dispenser Echo 520 (Labcyte). The compounds were tested at least at 12 different concentration points in the range from 10 μM to 100 pM, in triplicates. Luciferase activity was determined after 24 hours of incubation with compounds with Britelite plus luciferase reporter gene assay reagent (Perkin Elmer, USA), according to the manufacturer protocol. The luciferase signal was measured on an Envison multimode plate reader (Perkin Elmer, USA). Data were collected and processed using an in-house built LIMS system ScreenX and GraphPad Prism software. EC50 values were calculated using a regression function (dose response, variable slope).

[2] = molecular target: T2, Human full-length GR (Homo sapiens, UniProt P04150); experiment: GR cell-based luciferase reporter assay, agonist and antagonist mode, stable U2OS reporter cells; details: agonist mode and antagonist mode (10 nM dexamethasone), 100 μM to 100 pM, 24 hours
T2 sequence (P04150 1-777): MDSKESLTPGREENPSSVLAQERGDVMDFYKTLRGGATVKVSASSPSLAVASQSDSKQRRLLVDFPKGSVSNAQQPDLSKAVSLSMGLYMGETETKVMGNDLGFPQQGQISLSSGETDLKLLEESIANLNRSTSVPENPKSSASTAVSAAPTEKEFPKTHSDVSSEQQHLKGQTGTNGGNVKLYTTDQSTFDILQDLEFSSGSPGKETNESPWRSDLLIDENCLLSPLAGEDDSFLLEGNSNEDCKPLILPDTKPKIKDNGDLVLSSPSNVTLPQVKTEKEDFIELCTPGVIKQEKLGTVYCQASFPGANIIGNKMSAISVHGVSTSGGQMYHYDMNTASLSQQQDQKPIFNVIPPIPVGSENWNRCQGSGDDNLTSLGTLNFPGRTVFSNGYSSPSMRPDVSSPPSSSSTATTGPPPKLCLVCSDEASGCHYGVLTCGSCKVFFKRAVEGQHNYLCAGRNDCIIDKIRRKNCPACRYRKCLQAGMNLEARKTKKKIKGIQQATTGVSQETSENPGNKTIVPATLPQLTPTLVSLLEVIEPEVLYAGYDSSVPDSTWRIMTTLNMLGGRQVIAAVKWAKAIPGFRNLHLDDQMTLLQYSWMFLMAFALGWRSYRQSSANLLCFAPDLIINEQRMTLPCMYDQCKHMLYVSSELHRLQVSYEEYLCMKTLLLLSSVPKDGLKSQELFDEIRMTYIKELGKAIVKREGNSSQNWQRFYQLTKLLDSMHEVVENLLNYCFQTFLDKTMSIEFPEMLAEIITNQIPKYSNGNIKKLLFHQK

[3] = system: HEK293 cells; experiment: HEK293 viability assay (ATPlite 1step); format: cell-based, human; details: non-transfected HEK293, 24 h, ATP level; for HEK293 viability IC50 (μM): Low = activity detected but too low for exact value
Protocol: The non-transfected HEK293 cells were seeded to the 384-well plates at 5000 cell/well, compounds were added and the timing of all subsequent steps was exactly the same as in the reporter assays. […] After 24 h of compound incubation with cells, the viability of cells was measured by determining the ATP level in the samples using luciferase cell viability assay, ATPlite 1step (Perkin Elmer, USA).

[4] = molecular target: T3, Human full-length AR (Homo sapiens, UniProt P10275); experiment: AR cell-based luciferase reporter assay, agonist and antagonist mode, stable U2OS reporter cells; details: agonist mode and antagonist mode (2 nM dihydrotestosterone), 100 μM to 100 pM, 24 hours
T3 sequence (P10275 1-920): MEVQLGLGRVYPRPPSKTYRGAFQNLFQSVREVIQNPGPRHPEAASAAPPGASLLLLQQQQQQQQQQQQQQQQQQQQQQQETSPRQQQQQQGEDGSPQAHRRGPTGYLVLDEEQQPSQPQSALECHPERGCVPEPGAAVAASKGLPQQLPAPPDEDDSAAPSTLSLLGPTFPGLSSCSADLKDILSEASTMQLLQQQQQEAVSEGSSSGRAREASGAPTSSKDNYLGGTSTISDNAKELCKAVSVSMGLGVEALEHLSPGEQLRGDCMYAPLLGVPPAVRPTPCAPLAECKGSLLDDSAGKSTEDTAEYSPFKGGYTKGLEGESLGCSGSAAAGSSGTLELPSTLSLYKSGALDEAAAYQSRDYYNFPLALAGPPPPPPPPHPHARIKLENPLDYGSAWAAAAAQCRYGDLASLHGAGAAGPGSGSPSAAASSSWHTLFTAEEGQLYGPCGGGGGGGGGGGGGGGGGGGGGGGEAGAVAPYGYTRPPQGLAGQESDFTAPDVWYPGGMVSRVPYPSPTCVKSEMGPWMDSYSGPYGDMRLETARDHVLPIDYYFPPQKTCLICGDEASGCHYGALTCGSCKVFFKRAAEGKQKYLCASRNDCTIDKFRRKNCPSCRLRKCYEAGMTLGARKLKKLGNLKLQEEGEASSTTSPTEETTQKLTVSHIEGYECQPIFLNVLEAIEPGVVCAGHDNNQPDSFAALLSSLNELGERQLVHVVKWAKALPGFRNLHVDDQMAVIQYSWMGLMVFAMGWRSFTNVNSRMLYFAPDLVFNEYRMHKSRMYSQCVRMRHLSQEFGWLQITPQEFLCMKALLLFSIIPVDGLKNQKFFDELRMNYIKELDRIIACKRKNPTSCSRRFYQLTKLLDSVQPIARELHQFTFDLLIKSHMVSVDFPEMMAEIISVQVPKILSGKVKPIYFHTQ

[5] = molecular target: T4, Human full-length ERα (Homo sapiens, UniProt P03372); experiment: ERα cell-based luciferase reporter assay, agonist mode, transiently transfected HEK293 cells; details: 24 h; for EC50: low = activity detected but too low for exact value
T4 construct: expression vector encoding human full-length ERα or ERβ; expressed in transfected cells; host or cells: HEK293, transiently transfected
T4 sequence (P03372 1-595): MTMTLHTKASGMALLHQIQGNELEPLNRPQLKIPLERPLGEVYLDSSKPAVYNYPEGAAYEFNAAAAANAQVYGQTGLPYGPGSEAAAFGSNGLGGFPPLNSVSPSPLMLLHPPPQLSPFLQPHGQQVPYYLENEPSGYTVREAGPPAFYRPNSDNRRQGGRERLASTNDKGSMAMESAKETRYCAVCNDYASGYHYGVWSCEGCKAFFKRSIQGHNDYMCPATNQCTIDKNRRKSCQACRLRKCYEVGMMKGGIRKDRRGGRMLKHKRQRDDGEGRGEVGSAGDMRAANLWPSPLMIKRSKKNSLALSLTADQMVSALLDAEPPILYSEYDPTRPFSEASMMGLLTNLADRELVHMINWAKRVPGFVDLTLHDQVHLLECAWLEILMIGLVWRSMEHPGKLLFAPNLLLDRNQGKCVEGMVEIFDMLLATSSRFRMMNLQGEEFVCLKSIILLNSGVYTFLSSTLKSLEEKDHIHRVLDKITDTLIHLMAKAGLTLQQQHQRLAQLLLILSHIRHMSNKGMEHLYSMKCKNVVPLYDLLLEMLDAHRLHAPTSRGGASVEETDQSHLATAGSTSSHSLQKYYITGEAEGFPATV
Protocol: as §1, §2

[6] = Trial 2 (believed more reliable)

1-(4-hydoxyphenyl)-12-(1-hydroxyheptyl)-1,12-dicarba-closo-dodecaborane [Compound 06]
ERβ Efficacy (%) ([1]; Trial 1): 100% | ERβ Log(EC50) (M) ([1]; Trial 1, log10 of EC50): −7.71 M | EC50 ([1]; Trial 1, read-out: ERβ EC50): 19 nM | ERβ Efficacy (%) [1, 6]: 103% | ERβ Log(EC50) (M) ([1]; Trial 2 (believed more reliable), log10 of EC50): −7.76 M | EC50 ([1]; Trial 2 (believed more reliable), read-out: ERβ EC50): 17 nM | EC50 ([1]; differs from Table 5, luciferase reporter assay in HEK cells, read-out: EC50 at ERβ): 5 nM | agonistic or antagonistic activities on GR [2]: no agonistic or antagonistic activities | IC50 ([3]; Trial 1): 18000 nM | IC50 [3, 6]: 17000 nM

C[C@]12CC[C@@H]3c4ccc(O)cc4CC[C@H]3[C@@H]1CC[C@@H]2O [Compound E2, Estradiol]
agonistic or antagonistic activities on GR [2]: no agonistic or antagonistic activities | HEK293 viability IC50 (μM) [3]: Low

N#CC(Cc1ccc(O)cc1)c1ccc(O)cc1 (centres unmarked) [DPN, Diarylpropionitrile]
agonistic or antagonistic activities on AR [4]: no agonistic or antagonistic activities | agonistic or antagonistic activities on GR [2]: no agonistic or antagonistic activities | HEK293 viability IC50 (μM) [3]: Low

CCCc1c(-c2ccc(O)cc2)nn(-c2ccc(O)cc2)c1-c1ccc(O)cc1 [PPT, Propyl pyrazole triol]
ERα Efficacy (%) [5]: 101% | EC50 ([5]; read-out: ERα EC50): 3.3 nM | EC50 ([5]; log10 of EC50, negative values, read-out: ERα Log(EC50) (converted)): 3.31 nM | ERβ EC50 (nM) ([1]; 24 h, low = activity detected but too low for exact value): low | ERβ Log(EC50) (M) ([1]; log10 of EC50, negative values, 24 h, low = activity detected but too low for exact value): low
